Data set [1] addresses T1, E. histolytica methionine aminopeptidase 2 (EhMetAP2) (Entamoeba histolytica, UniProt C4LWW4).
T1 construct: gene EHI_126880; full-length, N-terminal GST fusion (GST-EhMetAP2) expressed in S. cerevisiae
T1 sequence (C4LWW4 1-413): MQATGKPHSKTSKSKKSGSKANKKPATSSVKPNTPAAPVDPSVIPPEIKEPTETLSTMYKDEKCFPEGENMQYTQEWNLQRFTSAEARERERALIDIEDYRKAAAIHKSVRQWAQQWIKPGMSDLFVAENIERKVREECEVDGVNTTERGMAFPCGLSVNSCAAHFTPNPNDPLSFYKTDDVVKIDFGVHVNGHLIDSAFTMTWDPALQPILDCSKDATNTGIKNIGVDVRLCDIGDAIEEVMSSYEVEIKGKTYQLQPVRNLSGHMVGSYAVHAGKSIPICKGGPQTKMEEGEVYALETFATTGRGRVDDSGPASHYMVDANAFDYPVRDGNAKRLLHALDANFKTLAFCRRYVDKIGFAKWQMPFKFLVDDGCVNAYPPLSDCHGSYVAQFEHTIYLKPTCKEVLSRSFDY
In words: fluorogenic Met-MCA aminopeptidase assay with purified GST-EhMetAP2, double-reciprocal plot. The data set is classed as biochemical.

Substrate in data set [2]: CSCC[C@H](N)C(=O)Nc1ccc2c(C)cc(=O)oc2c1
As to the kind of experiment: fluorometric hydrolysis by purified GST-EhMetAP2; Km by end point assay. It counts as biochemical, Entamoeba histolytica. The following applies: Mn2+ / Mg2+ ([…] MnCl2, […] MgCl2 in the assay).

What is called Ki is the dissociation constant of the complex between target and ligand, obtained from inhibition or displacement. What is called Km is the substrate concentration at which the rate is half of its maximum.

`CO[C@@H]1[C@H](OC(=O)/C=C/C=C/C=C/C=C/C(=O)O)CC[C@]2(CO2)[C@H]1[C@@]1(C)O[C@@H]1CC=C(C)C` [compound 1, fumagillin] yielded an inhibitory constant (Ki) in data set [1] of 60 ± 33 nM.

B1: E. histolytica methionine aminopeptidase 2 (EhMetAP2) (Entamoeba histolytica HM-1:IMSS) (protein)
chain: T1 sequence (C4LWW4 1-413)
notes: full-length, N-terminal GST fusion (GST-EhMetAP2) expressed in S. cerevisiae
With B1, the Km in data set [2] was determined as 770 ± 40 µM.

The values are drawn from paper PMC10648944, “Fumagillin inhibits growth of the enteric protozoan parasite Entamoeba histolytica by covalently binding to and selectively inhibiting methionine aminopeptidase 2” (Antimicrobial Agents and Chemotherapy, 2023).
